Data from article PMC3348135, “Identification of New Agonists and Antagonists of the Insect Odorant Receptor Co-Receptor Subunit” (PLoS ONE, 2012).
Read-outs that look alike come from different tables or passages of the source.

What was measured:
[1] = molecular target: T1, Dmel\Orco + Dmel\Or35a (Drosophila melanogaster, UniProt Q9VNB5); assay: Agonist activation of Dmel\Orco + Dmel\Or35a in Xenopus oocytes, two-electrode voltage clamp; assay type: cell-based; details: read-out: Response amplitude as percentage of response to 100 µM OLC3, Dmel\Orco + Dmel\Or35a
T1 construct: expressed in transfected cells; host or cells: Xenopus laevis oocytes (cRNA injection, pGEMHE)
T1 sequence (Q9VNB5 1-486): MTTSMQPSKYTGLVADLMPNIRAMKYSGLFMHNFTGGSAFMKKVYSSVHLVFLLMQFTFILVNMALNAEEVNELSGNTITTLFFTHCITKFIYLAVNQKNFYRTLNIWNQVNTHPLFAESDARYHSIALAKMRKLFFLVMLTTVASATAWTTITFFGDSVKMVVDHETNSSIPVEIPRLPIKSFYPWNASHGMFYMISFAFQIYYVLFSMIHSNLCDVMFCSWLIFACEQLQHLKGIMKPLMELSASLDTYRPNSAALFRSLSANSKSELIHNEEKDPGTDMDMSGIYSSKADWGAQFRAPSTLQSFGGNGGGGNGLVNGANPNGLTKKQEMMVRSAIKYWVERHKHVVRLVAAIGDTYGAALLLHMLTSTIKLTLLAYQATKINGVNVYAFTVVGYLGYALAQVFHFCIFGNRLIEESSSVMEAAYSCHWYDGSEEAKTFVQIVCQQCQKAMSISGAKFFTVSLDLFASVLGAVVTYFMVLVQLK
T1 sequence (Q9V3Q2 1-409 partner): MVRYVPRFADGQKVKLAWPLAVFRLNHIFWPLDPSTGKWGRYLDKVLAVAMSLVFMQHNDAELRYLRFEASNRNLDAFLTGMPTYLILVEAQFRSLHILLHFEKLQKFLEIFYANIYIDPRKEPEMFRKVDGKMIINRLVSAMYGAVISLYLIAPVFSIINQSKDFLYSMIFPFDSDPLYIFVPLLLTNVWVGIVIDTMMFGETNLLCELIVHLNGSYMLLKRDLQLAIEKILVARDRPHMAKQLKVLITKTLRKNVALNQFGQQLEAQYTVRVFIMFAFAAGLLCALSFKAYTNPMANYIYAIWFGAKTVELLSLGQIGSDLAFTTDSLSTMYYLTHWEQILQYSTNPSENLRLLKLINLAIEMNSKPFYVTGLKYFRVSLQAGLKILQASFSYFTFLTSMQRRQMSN
Description: (§1) Oocytes were surgically removed from mature Xenopus laevis frogs. Follicle cells were removed by treatment with Collagenase B (Boehringer Mannhem) for 2 hours at room temperature. Capped cRNA encoding each DmOR subunit was generated using mMessage mMachine kits (Ambion). For heteromeric ORs, 25 ng of cRNA encoding each OR subunit was injected into Stage V-VI Xenopus oocytes. For expression of Orco alone, 50 ng of cRNA was injected. Oocytes were incubated at 18°C in Barth’s saline (in mM: 88 NaCl, 1 KCl, 2.4 NaHCO3, 0.3 CaNO3, 0.41 CaCl2, 0.82 MgSO4, 15 HEPES, pH 7.6, and 150 µg/ml ceftazidime) for 2–5 days prior to electrophysiological recording.
(§2) Odorant and Orco ligand induced currents were recorded under two-electrode voltage clamp in Xenopus laevis oocytes expressing ORs, using an automated parallel electrophysiology system (OpusExpress 6000A; Molecular Devices). Oocytes were perfused with ND96 (in mM: 96 NaCl, 2 KCl, 1 CaCl2, 1 MgCl2, 5 HEPES, pH 7.5). Odorant stock solutions (0.5 or 1 M) and Orco ligand stock solutions (100 mM) were prepared in DMSO and diluted in ND96. Unless otherwise noted, applications were for 60 sec at a flow rate of 1.0 ml/min, with extensive washing in ND96 (9 or 20 min at 4.6 ml/min) between applications. Micropipettes were filled with 3 M KCl and had resistances of 0.2−2.0 MΩ. The holding potential was −70 mV. Current responses, filtered (4-pole, Bessel, low pass) at 20 Hz (−3 db) and sampled at 100 Hz, were captured and stored using OpusXpress 1.1 software (Molecular Devices).
(§3) Initial analysis of electrophysiological data was done using Clampfit 9.1 software (Molecular Devices). Curve fitting and statistical analyses were done using Prism 5 (Graphpad). Concentration-response data were fit to the equation: I = Imax/(1+(EC50/X)^n) where I represents the current response at a given concentration of odorant, X; Imax is the maximal response; EC50 is the concentration of agonist yielding a half maximal response; n is the apparent Hill coefficient. Concentration-inhibition data were fit to the equation: I = Imax/(1+(X/IC50)^n) where I represents the current response at a given concentration of inhibitor, X; Imax is the maximal response in the absence of inhibitor; IC50 is the concentration of inhibitor present that still allows a half maximal response from odorant; n is the apparent Hill coefficient. Statistical significance was assessed using a two-tailed unpaired t test, an F test, or a one-way analysis of variance followed by the Bonferroni’s post-test, as appropriate.

[2] = molecular target: T2, Dmel\Orco (Drosophila melanogaster, UniProt Q9VNB5); assay: Agonist activation of homomeric Dmel\Orco in Xenopus oocytes, two-electrode voltage clamp; assay type: cell-based; details: read-out: Response amplitude as percentage of response to 100 µM OLC3, Dmel\Orco
T2 construct: expressed in transfected cells; host or cells: Xenopus laevis oocytes (cRNA injection, pGEMHE)
T2 sequence (Q9VNB5 1-486): T1 sequence (Q9VNB5 1-486)
Description: as §1, §2, §3

[3] = molecular target: Cqui\Orco + Cqui\Or10 (Culex quinquefasciatus, UniProt D5LMR7+Q309I4); assay: Activation of Cqui\Orco + Cqui\Or10 in Xenopus oocytes, two-electrode voltage clamp; assay type: cell-based; details: 100 µM compound; mean ± SEM, n=3-8; read-out: Response amplitude as percentage of response to 100 µM OLC3, Cqui\Orco + Cqui\Or10
Description: as §1, §2, §3

[4] = system: Cqui\Orco; assay: Agonist activation of homomeric Cqui\Orco in Xenopus oocytes, two-electrode voltage clamp; assay type: cell-based, Culex quinquefasciatus; details: 100 µM compound; mean ± SEM, n=3-8
[5] = molecular target: T1, Dmel\Orco + Dmel\Or35a; assay: Inhibition of OLC12 activation of Dmel\Orco + Dmel\Or35a in Xenopus oocytes; assay type: cell-based
Description: as §1, §2
In inhibition assays, oocytes were exposed to 60 sec applications of OLC12 with 9 min washes between applications (Fig. 3 and 4) or 60 sec applications of odorant with 20 min washes between applications (Fig. 5). Oocytes were then exposed to a 90 sec application of antagonist candidate, immediately followed by a 60 sec co-application of antagonist candidate and OLC12 or odorant. Oocytes were then exposed to a final 60 sec application of OLC12 or odorant. The current response in the presence of antagonist candidate was compared to the preceding response(s) to OLC12 (or odorant) alone.
as §3

[6] = activated by 10 µM OLC12 (EC25), read-out: IC50, Dmel\Orco + Dmel\Or35a (activated by 10 µM OLC12)

Sequence of Cqui\Orco + Cqui\Or10 (D5LMR7 entry or part of it): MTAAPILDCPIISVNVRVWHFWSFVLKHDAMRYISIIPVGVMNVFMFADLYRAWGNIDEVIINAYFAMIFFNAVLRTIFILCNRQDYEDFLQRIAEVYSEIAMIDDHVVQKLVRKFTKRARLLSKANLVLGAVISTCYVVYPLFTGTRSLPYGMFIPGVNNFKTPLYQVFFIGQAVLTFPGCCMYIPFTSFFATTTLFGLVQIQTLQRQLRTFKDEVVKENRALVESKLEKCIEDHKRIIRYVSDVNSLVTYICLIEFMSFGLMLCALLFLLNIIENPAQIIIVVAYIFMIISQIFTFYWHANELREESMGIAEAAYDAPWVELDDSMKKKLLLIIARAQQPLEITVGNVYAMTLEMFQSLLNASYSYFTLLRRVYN
Sequence of Cqui\Orco + Cqui\Or10 (Q309I4 entry or part of it): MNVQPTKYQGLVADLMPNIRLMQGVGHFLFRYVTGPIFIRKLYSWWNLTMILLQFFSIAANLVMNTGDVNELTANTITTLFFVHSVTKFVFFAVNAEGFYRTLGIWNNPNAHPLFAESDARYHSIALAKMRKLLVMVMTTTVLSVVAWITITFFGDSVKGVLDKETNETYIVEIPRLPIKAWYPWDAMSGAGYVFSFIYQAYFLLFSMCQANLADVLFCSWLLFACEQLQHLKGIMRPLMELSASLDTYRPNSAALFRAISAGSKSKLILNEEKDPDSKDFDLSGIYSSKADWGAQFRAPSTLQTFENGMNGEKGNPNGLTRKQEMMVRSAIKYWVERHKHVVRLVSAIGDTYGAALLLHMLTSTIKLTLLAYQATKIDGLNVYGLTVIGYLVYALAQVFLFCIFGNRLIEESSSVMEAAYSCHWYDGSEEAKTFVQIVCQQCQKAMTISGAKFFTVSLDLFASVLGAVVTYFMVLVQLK

Row | SMILES | Emax at 100 µM [1] [%] | Emax at 100 µM [2] [%] | Emax at 100 µM [3] [%] | Response amplitude as percentage of response to 100 µM OLC3, Cqui\Orco [4] [%] | IC50 [5, 6] [µM] | IC50 ([5]; activated by 100 µM OLC12, read-out: IC50, Dmel\Orco + Dmel\Or35a activated by 100 µM OLC12) [µM]
1 | CCCCc1ccc(NC(=O)CSc2nnc(-c3ccccn3)n2CC)cc1 [OLC15] | 0 | 0 | 0 | 0 | 15 ± 1 | 67 ± 7
2 | CCc1ccc(NC(=O)CSc2nnc(-c3ccccn3)n2CC)cc1 [OLC2] | 2 ± 1 | 0 | 0 | 0 | 24 ± 5 | 
